Data published in patent US8399490B2, “Insecticides” (Syngenta Crop Protection LLC, priority 2007, dated 2013).
Where two headings read alike, the source gives them in different places.

How the values were obtained:
[1] = system: Spodoptera littoralis (Egyptian cotton leafworm); experiment: Example B1: Activity against Spodoptera littoralis (larvicide, feeding/residual contact activity, preventive), cotton leaf discs; format: in vivo; settings: foliar, 72 h, L1 larvae on cotton leaf discs, 3 days after treatment
Description: Activity Against Spodoptera littoralis (Egyptian Cotton Leafworm)
(Larvicide, Feeding/Residual Contact Activity, Preventive)
The samples are checked for mortality, repellent effect, feeding behaviour, and growth regulation 3 days after treatment. In this test, compounds listed in Table P above show good activity. In particular compounds P.1, P.2, P.3, P.4, P.5, P.6, P.7, P.8, P.9, P.10, P.11, P.12, P.13, P.14, P.15, P.16, P.17, P.18, P.19, P.20, P.21, P.22, P.23, P.24, P.25, P.26, P.27, P.28, P.29, P.30, P.31, P.32, P.33, P.34, P.35, P.36, P.37, P.38, P.39, P.40, P.41, P.42, P.43, P.44, P.46, P.50, P.51, P.52, P.55, P.56, P.57, P.58, P.59, P.60, P61, P.66, P.67, P.68, P.69, P.70, P.71, P.72, P.73, P.74, P.75, P.76, P.77, P.78, P.83, P.84, P.87 and P.88 show an activity of over 80% at a concentration of 400 ppm.

[2] = system: Heliothis virescens (tobacco budworm); experiment: Example B2: Activity against Heliothis virescens (ovo-larvicide, feeding/contact activity, curative), eggs on artificial diet; format: in vivo; settings: 96 h, 4 days incubation
Description: Activity Against Heliothis virescens (Tobacco Budworm) (Ovo-Larvicide, Feeding/Contact Activity, Curative) Eggs (0-24 h old) are placed in 24-well microtiter plate on artificial diet and treated with test solutions by pipetting. After an incubation period of 4 days, samples are checked for egg mortality, larval mortality, and growth regulation.

[3] = system: Plutella xylostella (diamond back moth); experiment: Example B3: Plutella xylostella (larvicide, feeding/residual contact activity, preventive), artificial diet MTP; format: in vivo; settings: 120 h, L2 larvae on artificial diet, 5 days incubation
Description: (§1) Plutella xylostella (Diamond Back Moth) (Larvicide, Feeding/Residual Contact Activity, Preventive) 24-well microtiter plate (MTP) with artificial diet is treated with test solutions by pipetting. After drying, the MTP's are infested with larvae (L2) (10-15 per well). After an incubation period of 5 days, samples are checked for larval mortality, antifeedant and growth regulation.

[4] = system: Diabrotica balteata (corn root worm); experiment: Example B4: Diabrotica balteata (larvicide, feeding/residual contact activity, preventive), artificial diet MTP; format: in vivo; settings: 120 h, L2 larvae on artificial diet, 5 days incubation
Description: as §1, with “Diabrotica balteata (Corn Root Worm)” for “Plutella xylostella (Diamond Back Moth)”, “(6-10” for “(10-15”

[5] = system: Myzus persicae (green peach aphid); settings: foliar, 144 h, read-out: activity
[6] = system: Myzus persicae (green peach aphid); experiment: Example B6: Activity against Myzus persicae (mixed population, systemic/feeding activity, curative), pea seedling roots in test solution; settings: 144 h, read-out: activity

Measured: pest or weed control at 400 ppm

CNC(=O)c1c(NC(=O)c2cc(Br)nn2-c2ncccc2Cl)c(C)cc2c1OC(F)(F)O2 [P.26]
> 80%: all assays above

COc1cc(C(=O)Nc2c(C)cc3c(c2C(=O)NC(C)C)OCO3)n(-c2ncccc2Cl)n1 [P.77]
> 80%: [1] | [2] | [3] | [6]

CSCC(C)(C)NC(=O)c1c(NC(=O)c2cc(Br)nn2-c2ncccc2Cl)c(C)cc2c1OC(F)(F)O2 [P.27]
> 80%: all assays above

CSCC(C)(C)NC(=O)c1c(NC(=O)c2cc(Cl)nn2-c2ncccc2Cl)c(Cl)cc2c1OC(F)(F)O2 [P.24]
> 80%: all assays above

CC(C)NC(=O)c1c(NC(=O)c2cc(Br)nn2-c2ncccc2Cl)c(Cl)cc2c1OC(F)(F)O2 [P.19]
> 80%: all assays above

Cc1cc2c(c(C(=O)NC(C)C)c1NC(=O)c1cc(Br)nn1-c1ncccc1Cl)OC(F)(F)O2 [P.14]
not listed: [4]
> 80%: all other assays above

COc1cc(C(=O)Nc2c(Cl)cc3c(c2C(=O)NC(C)C)C(O)CC3)n(-c2ncccc2Cl)n1 (stereo not drawn) [P.66]
> 80%: [1] | [2] | [3] | [6]

Cc1cc2c(c(C(=O)NC3(C4CC4)CC3)c1NC(=O)c1cc(C(F)F)nn1-c1ncccc1Cl)OCO2 [P.71]
> 80%: [1] | [2] | [3] | [5]

CNC(=O)c1c(NC(=O)c2cc(Cl)nn2-c2ncccc2Cl)c(C)cc2c1OC(F)(F)O2 [P.29]
not listed: [5]
> 80%: all other assays above

CSCC(C)(C)NC(=O)c1c(NC(=O)c2cc(C(F)(F)F)nn2-c2ncccc2Cl)c(Cl)cc2c1OC(F)(F)O2 [P.16]
> 80%: all assays above

CNC(=O)c1c(NC(=O)c2cc(OC)nn2-c2ncccc2Cl)c(Cl)cc2c1OC(F)(F)O2 [P.37]
> 80%: [1] | [2] | [3] | [4]

O=C(NC1(C2CC2)CC1)c1c(NC(=O)c2cc(C(F)(F)F)nn2-c2ncccc2Cl)c(Cl)cc2c1OC(F)(F)O2 [P.17]
> 80%: [1] | [2] | [3] | [4]

O=C(NC1(C2CC2)CC1)c1c(NC(=O)c2cc(Br)nn2-c2ncccc2Cl)c(Cl)cc2c1OC(F)(F)O2 [P.21]
not listed: [6]
> 80%: all other assays above

CC(C)NC(=O)c1c(NC(=O)c2cc(Br)nn2-c2ncccc2Cl)ccc2c1S(=O)(=O)C(C)C2 (stereo not drawn) [P.60]
> 80%: [1] | [2] | [3] | [4]

Cc1cc2c(c(C(=O)NC(C)C)c1NC(=O)c1cc(C(F)F)nn1-c1ncccc1Cl)OCO2 [P.74]
not listed: [5]
> 80%: all other assays above

CC(C)NC(=O)c1c(NC(=O)c2cc(Cl)nn2-c2ncccc2Cl)c(Cl)cc2c1OCO2 [P.3]
> 80%: [1] | [2] | [3] | [4]

Cc1cc2c(c(C(=O)NC(C)(C)C)c1NC(=O)c1cc(C(F)(F)F)nn1-c1ncccc1Cl)OCO2 [P.70]
> 80%: [1] | [2] | [3] | [4]

O=C(NC1(C2CC2)CC1)c1c(NC(=O)c2cc(Cl)nn2-c2ncccc2Cl)c(Cl)cc2c1OC(F)(F)O2 [P.25]
> 80%: [1] | [2] | [3] | [4]

COc1cc(C(=O)Nc2c(Cl)cc3c(c2C(=O)NC(C)C)OCO3)n(-c2ncccc2Cl)n1 [P.12]
> 80%: [1] | [2] | [3] | [5]

Cc1cc2c(c(C(=O)NC3(C4CC4)CC3)c1NC(=O)c1cc(Br)nn1-c1ncccc1Cl)OCO2 [P.78]
> 80%: [1] | [2] | [3] | [4]

CCNC(=O)c1c(NC(=O)c2cc(C(F)F)nn2-c2ncccc2Cl)c(Cl)cc2c1OCO2 [P.5]
> 80%: [1] | [2] | [3] | [5]

CCNC(=O)c1c(NC(=O)c2cc(C(F)(F)F)nn2-c2ncccc2Cl)c(C)cc2c1OCO2 [P.68]
> 80%: [1] | [2] | [3] | [4]

CNC(=O)c1c(NC(=O)c2cc(C(F)F)nn2-c2ncccc2Cl)c(Br)cc2c1OC(C)C2 (stereo not drawn) [P.83]
not listed: [6]
> 80%: all other assays above

COc1cc(C(=O)Nc2c(Br)cc3c(c2C(=O)NC(C)C)OC(F)(F)O3)n(-c2ncccc2Cl)n1 [P.40]
> 80%: [1] | [2] | [3] | [4]

CCNC(=O)c1c(NC(=O)c2cc(C(F)(F)F)nn2-c2ncccc2Cl)c(Cl)cc2c1OCO2 [P.2]
> 80%: [1] | [2] | [3] | [4]

CC(C)NC(=O)c1c(NC(=O)c2cc(OCC(F)(F)F)nn2-c2ncccc2Cl)c(Cl)cc2c1OCO2 [P.57]
> 80%: [1] | [2] | [3] | [4]

CC(C)NC(=O)c1c(NC(=O)c2cc(Br)nn2-c2ncccc2Cl)c(Br)cc2c1OC(F)(F)O2 [P.42]
> 80%: [1] | [2] | [3] | [4]

CCNC(=O)c1c(NC(=O)c2cc(OC)nn2-c2ncccc2Cl)c(C)cc2c1OCO2 [P.76]
> 80%: [1] | [2] | [3] | [6]

Cc1cc2c(c(C(=O)NC(C)C)c1NC(=O)c1cc(Br)nn1-c1ncccc1Cl)OCO2 [P.75]
> 80%: [1] | [2] | [3] | [4]

CNC(=O)c1c(NC(=O)c2cc(Br)nn2-c2ncccc2Cl)c(Br)cc2c1S(=O)(=O)C(C)C2 (stereo not drawn) [P.88]
> 80%: [1] | [2] | [3] | [5]
